US20140255432A1, “SILVESTROL, SILVESTROL ANALOGS AND USES THEREOF” (priority 2011, published 2014)

Tests used:
[1] = tested on: interleukin-6; test: Real-time RT-PCR for NF-κB targets in LCL; type: cell-based, human; settings: 10 nM in LCL (FIG. 45)
Description: (§1) FIG. 41 presents data regarding NK cytotoxicity of K562 cells. […] FIG. 42 presents data regarding the cytotoxicity of LCLs pretreated with BZLF 1. […] BZLF1 antigen pulsed LCLs promoted enhanced killing in untreated and silvestrol-treated CTLs. FIG. 43 presents data relating to CD4 IFNgamma release with LCL pretreated with BZLF1. […] FIG. 44 presents data relating to CD4 IFNgamma release with LCL pretreated with BZLF 1. […] FIG. 45 presents data relating to interleukin-6 induction by silvestrol. […] FIG. 46 presents data relating to a change in LMP-1 expression following silvestrol treatment. […] Three cell lines were examined on days 1, 3, and 5 following treatment. FIG. 47 presents data relating to a change in EBNA1 expression following silvestrol treatment. Three cell lines were examined on days 1, 3, and 5 following treatment.

[2] = tested on: NK cells against LCL; test: Antibody-dependent cell-mediated cytotoxicity (ADCC) assay of NK cells with rituximab; type: cell-based, human
Method: Non-radioactive flow cytometry-based cytotoxicity assays have been described previously (Godoy-Ramirez 2005; Helguera 2011). Co-cultures of PBMC and irradiated LCL were grown in the presence or absence of silvestrol for 14 d and collected. Fresh autologous LCL cells were stained with 200 nM carboxyfluorescein diacetate succinimidyl ester (CFSE) (CellTrace™, Invitrogen) for 15 min at 25° C. prior to being mixed with effectors from the irradiated co-cultures at an effector:target (E:T) ratio of 20:1 for 4 hr at 37° C. After the incubation, cells were stained with 7-aminoactinomycin D (7AAD) (BD Biosciences, San Diego, Calif.) and washed. Cytotoxicity was measured by gating on the CFSE-positive events and measuring the 7AAD-positive cells. (See FIGS. 31 and 32). For antibody-dependent cell-mediated cytotoxicity (ADCC) assays the same technique was used; however, the co-cultured effectors were natural killer (NK) cell-enriched and were incubated in the presence or absence of 5 μg/mL rituximab or herceptin (negative control) (Genentech, Inc., South San Francisco, Calif.) for 4 hr at 37° C.
Next, antibody-dependent cell-mediated cytotoxicity (ADCC) assays were utilized to measure the innate immune response of NK cells to LCL in the presence of silvestrol. […] Fresh CFSE-labeled LCL targets and autologous NK cells were incubated with the monoclonal antibodies rituximab (anti-CD20, expressed on LCL) or herceptin (anti-HER2, not expressed on immune cells). After 4 hr, ADCC was evaluated using CFSE and 7-AAD staining as described above. Specifically, cytotoxicity was measured by CFSE^+/7AAD^+ events. Data are shown relative to the positive control (effectors+targets+ritux) and are the averages of three individual experiments. Bars show −/+ standard deviation.
To determine the acute effect of silvestrol on ADCC, fresh (non-autologous) NK cells were obtained from enriched leukocyte products, incubated 18 hr with or without 10 nM silvestrol, then washed and mixed with CFSE-stained LCL. […]

[3] = tested on: CD3-/CD19+ LCL and immune effector subsets; test: Non-irradiated LCL / autologous PBMC co-cultures, flow cytometry; type: cell-based, human
Method: Lymphoblastoid cell lines (LCL) were derived in vivo by engrafting severe combined immune-deficient (SCID) mice (Taconic, Hudson N.Y.) with human peripheral blood mononuclear cells (PBMC) from a healthy EBV-positive donor as described (Rowe 1991; Baiocchi 1994). Co-cultures (Cocx) were created by mixing 5×10^4 LCL (either non-irradiated or irradiated with 14000 rad) per well with equal numbers of autologous PBMC in 96-well plates. Cultures were grown in the presence of 10 U/mL IL-2 and were given a single dose of silvestrol and cultured for 10-14 days.
Cells from irradiated or non-irradiated co-cultures were co-stained with LIVE/DEAD cell stain (Invitrogen, Grand Island, N.Y.) and hu-CD3-APC and either hu-CD4-PE, hu-CD-8-PE, hu-CD19-PE (BD Biosciences, San Diego, Calif.), or hu-CD56-PE (Beckman Coulter, Brea, Calif.). Live events were gathered by gating on cells negative for the LIVE/DEAD stain on an FC500 cytometer (Beckman Coulter). Cell viability was also measured by flow cytometry at 24, 72, and 120 hr using annexin-V-FITC and propidium iodide (PI) according to the manufacturer's instructions (BD Biosciences).
It was next examined how viable, non-irradiated LCL interacted with immune effectors in the presence of silvestrol, a situation closer to conditions that occur in vivo. CoCx were incubated in the presence of 10 U/mL IL-2. Specifically, LCL from three separate donors were incubated at a ratio of 1:1 with their respective autologous PBMCs for 10 days after adding a single dose of 0, 2, 5, or 10 nM silvestrol. On day 10, flow cytometric analysis was conducted. Live events were gathered by gating on cells negative for the LIVE/DEAD stain. Data are expressed as percentage of total viable population for (A) CD3^−/CD19^+ LCLs; (B) CD3^+/C4^+ helper T cells; (C) CD3^+/CD8^+ CTLs; or (D) CD3^−/CD56^+ NK cells. Left untreated, the transformed LCL (CD3^−/CD19^+) cells proliferated and matched the expansion of effectors lymphocyte subsets, approximately maintaining the 1:1 ratio (FIGS. 34A and 34E). […] Similarly, CD4^+ T cell percentages were reduced with increasing silvestrol concentrations (FIG. 34B). In contrast, CD8+ T cells and CD56^+ NK cell populations expanded in the presence of silvestrol, both as percent of population and absolute numbers (FIGS. 34C-34D).

[4] = tested on: EBV LMP-1 oncogene transcript; test: EBV LMP-1 oncogene transcript expression in LCL; type: cell-based, Epstein-Barr virus; settings: three cell lines; days 1, 3, 5 (FIG. 46)
Description: as §1

[5] = single dose 2, 5, 10 nM, day 10, non-irradiated LCL

With `COC(=O)[C@H]1[C@@H](O)[C@@]2(O)c3c(OC)cc(O[C@@H]4O[C@@H]([C@H](O)CO)CO[C@H]4OC)cc3O[C@@]2(c2ccc(OC)cc2)[C@@H]1c1ccccc1` [silvestrol] the interleukin-6 expression [1] was “induced”, the “ADCC activity of NK cells incubated in media vs. silvestrol” value ([2]; 10 nM, 24 hr pretreatment, DC9 LCLs (FIG. 19)) was “equivalent ADCC activity” and the “ADCC activity of freshly isolated (non-autologous) NK cells” value ([2]; 18 hr pre-incubation with 10 nM, p=0.854) was “no observable effect”. The “rituximab-dependent cytotoxic activity of NK cells, expanded with vs. without silvestrol” value ([2]; autologous NK cells, 10 nM for 14 days, p=0.838) was “similar”, the “CD19+ B cells in non-irradiated co-cultures” value ([3]; 2, 5, 10 nM, 14 days of culture (FIG. 16)) was “dose dependent loss” and the “CD4+ T cell percentages” value [3, 5] was “reduced”. For the same compound, the “CD8+ T cell population (percent and absolute numbers)” value [3, 5] was “expanded”, the “CD56+ NK cell population (percent and absolute numbers)” value [3, 5] was “expanded” and the “viable EBV-LCL (CD3-/CD19+)” value [3, 5] was “dose-dependent ablation”. The “expression of the EBV LMP-1 oncogene transcript” value [4] was “decreased”.
